# Measurements reported in article PMC10747602, “Dose Response, Dosimetric, and Metabolic Evaluations of Replacement PFAS Perfluoro-(2,5,8-trimethyl-3,6,9-trioxadodecanoic) Acid (HFPO-TeA)” (Toxics, 2023).
# Where “and” joins values, the source holds several entries; their conditions need not be identical. Equal values may be shown once.
# Key:
# [1] = Hepatocyte metabolic stability (clearance) assay, human hepatocytes; conditions: human, hepatocytes, 1000 nM
# Description: (§1) Information on the chemicals and materials used in the hepatocyte metabolic work can be found in Supplementary Text S9 and Table S3. In vitro evaluations of hepatocyte metabolic stability were performed in human and rat hepatocytes, as previously described. Briefly, pooled, cryopreserved hepatocyte suspensions were thawed, assessed for viability, and then diluted in William’s medium E containing dexamethasone and cell maintenance cocktail B to achieve a cell density of 50,000 cells/100 µL. The assay was started by adding hepatocyte suspensions to wells of 96-well polypropylene plates containing an equal volume of media with 2 µM of analyte (final assay concentration: 1 µM). Plates were placed in a 37 °C cell culture incubator (5% CO2) on a shaker set to 200 rpm. Time points assessed were T0, T15, T30, T60, T120, and T240 min. At each time point, the plates were removed from the shaker and the incubates were crashed with an equal volume of ice-cold ACN containing 1.2% FA and 16 ng/mL of ^13C3 -HFPO-DA. After chilling and centrifugation at 4122× g, the supernatants were transferred to new collection plates and stored at −70 °C until analysis for the parent compound on the Waters instrumentation described below. Immediately prior to analysis, samples were thawed, vortexed, and centrifuged at 4200× g, and then diluted 1:4 in 95:5 H2O/ACN with 2.5 mM of ammonium acetate. Negative controls, including no cell controls and metabolically inactivated hepatocytes, were run concurrently to assess the chemical stability over the time course.
# (§2) Intrinsic clearance (Clint; hepatic clearance) calculations are detailed in Supplementary Text S9 [57].
# (§3) Targeted, quantitative analysis of in vitro hepatocyte metabolic stability and plasma protein binding assay samples was conducted on a Waters Xevo-TQS micro mass spectrometer (Waters, Milford, MA, USA) ultra-high-performance liquid chromatography tandem mass spectrometry system (UPLC-MS/MS), modified with a PFAS analysis kit. Samples were analyzed in negative ion mode with UniSpray ionization. A CORTECS T3 column (Waters CORTECS, 3 × 100 mm, particle size 2.7 µm) was used for chromatographic separation with a flow rate of 0.6 mL/min and a temperature of 55 °C. Gradient elution was used with eluent A (95:5 H2O/ACN) and eluent B (95:5 ACN/H2O) with 2.5 mM of ammonium acetate. The gradient is available in Table S11. Additional details for MS parameters are found in Table S12 and monitored transitions are found in Table S13.
# (§4) Table S2: Data processing parameters used with Sciex MarkerView 1.3.1.
# (§5) Support ing Text S9: Hepatocyte Metabolic Stability Assay Materials, Chemicals, and Calculations
# (§6) Pooled human and rat cryopreserved primary hepatocyte suspensions were both obtained from
# (§7) BioIVT, a US Food and Drug Administration-licensed and inspected donor center, and produced using
# (§8) non-transplantable tissue.
# (§9) William’s E media, dexamet hasone (98% pure), and cell maintenance cocktail B were obtained from
# (§10) Thermo Fisher Scientific (Waltham, MA, USA), the OptiThaw hepatocyte kit from Sekisui/Xenotech
# (§11) (Tokyo, Japan), and the trypan blue s (Sekisui/ Xenotech, Tokyo, Japan) and the trypan blue solution from […]
# human hepatocytes = experiment: as above; conditions: 1000 nM; for Negative Control Data, No cells (NC), Ln Concentration / Negative Control Data, Heat Treated (HT), Ln Concentration / Ln Concentration: Rep 1-3
# Description: as §1, §2, §3, §4, §5, §6, §7, §8, §9, §10, §11
# [2] = Hepatocyte metabolic stability (clearance) assay, rat hepatocytes; conditions: both, Sprague Dawley, rat, hepatocytes
# Description: as §1, §2, §3, §4, §5, §6, §7, §8, §9, §10, §11
# rat hepatocytes = experiment: as above; conditions: 1000 nM
# Description: as §1, §2, §3, §4, §5, §6, §7, §8, §9, §10, §11
# [3] = HT-Background Half Life, heat treated human hepatocytes
# [4] = Half Life, human hepatocytes, time in min
structure (smiles),measurement,setting,value
"CCOc1ccc(NC(C)=O)cc1 [Phenactin, phenacetin, reference compound]",hepatocyte CLint at 1 µM,"[1]; Background-Subtracted Clint, human hepatocytes",8.8 µL/min/1e6 cells
same,hepatocyte CLint at 1 µM,"[1]; Clint, human hepatocytes, not background-subtracted",12.1 µL/min/1e6 cells
same,half-life at 1 µM,[1]; [3],7.1 h
same,half-life at 1 µM,[1]; [4],1.92 h
same,"Negative Control Data, No cells (NC), Ln Concentration",human hepatocytes; 15 min,3.8649 and 3.8943 and 3.8643
same,"Negative Control Data, No cells (NC), Ln Concentration",human hepatocytes; 240 min,3.9162 and 4.0144 and 3.9729
same,HT Background k,human hepatocytes; heat treated human hepatocytes,-0.0016
same,"Negative Control Data, Heat Treated (HT), Ln Concentration","human hepatocytes; human hepatocytes, 15 min",4.4085 and 4.9735 and 5.3748
same,"Negative Control Data, Heat Treated (HT), Ln Concentration","human hepatocytes; human hepatocytes, 240 min",4.6160 and 4.4891 and 4.5540
same,Ln Concentration,"human hepatocytes; human hepatocytes, time 0 min",3.7764 and 3.7975 and 3.7223
same,Ln Concentration,"human hepatocytes; human hepatocytes, time 15 min",3.8137 and 3.7544 and 3.6623
same,Ln Concentration,"human hepatocytes; human hepatocytes, time 30 min",3.5799 and 3.7106 and 3.6378
same,Ln Concentration,"human hepatocytes; human hepatocytes, time 60 min",3.3014 and 3.5121 and 3.4541
same,Linear Regression Best-Fit Slope (ln concentration vs time),"human hepatocytes; human hepatocytes, time in min",-0.006025
same,half-life at 1000 nM,[2],1.44 h
same,hepatocyte CLint at 1000 nM,[2],16.1 µL/min/1e6 cells
same,"Negative Control Data, Heat Treated (HT), 15 min","rat hepatocytes; heat treated rat hepatocytes, 15 min, Ln concentration, Rep 1-3",3.7605 and 3.8293 and 3.8230
same,"Negative Control Data, Heat Treated (HT), 240 min","rat hepatocytes; heat treated rat hepatocytes, 240 min, Ln concentration, Rep 1-3",3.8801 and 3.8626 and 3.3989
same,"Negative Control Data, No cells (NC), 15 min","rat hepatocytes; no cells, 15 min, Ln concentration, Rep 1-3",3.7121 and 3.7753 and 3.7677
same,"Negative Control Data, No cells (NC), 240 min","rat hepatocytes; no cells, 240 min, Ln concentration, Rep 1-3",3.8252 and 3.8743 and 4.0157
same,"Ln Concentration, 0 min","rat hepatocytes; suspended rat hepatocytes, time 0 min, Rep 1-3",3.7431 and 3.7883 and 3.8093
same,"Ln Concentration, 15 min","rat hepatocytes; suspended rat hepatocytes, time 15 min, Rep 1-3",3.7497 and 3.8776 and 3.8997
same,"Ln Concentration, 30 min","rat hepatocytes; suspended rat hepatocytes, time 30 min, Rep 1-3",3.5148 and 3.4871 and 3.5444
same,"Ln Concentration, 60 min","rat hepatocytes; suspended rat hepatocytes, time 60 min, Rep 1-3",3.0012 and 3.3979 and 3.4757
same,"Ln Concentration, 120 min","rat hepatocytes; suspended rat hepatocytes, time 120 min, Rep 1-3",2.7575 and 2.7517 and 2.9423
same,"Ln Concentration, 240 min","rat hepatocytes; suspended rat hepatocytes, time 240 min, Rep 1-3",2.0042 and 1.7029 and 2.0503
same,Linear Regression Best-Fit Slope (Ln concentration vs time),"rat hepatocytes; suspended rat hepatocytes, time in min",-0.008025
"CC(C)NCC(O)COc1cccc2ccccc12 (stereo not drawn) [Propranolol, reference compound]",half-life at 1 µM,[1]; [3],12.3 h
same,half-life at 1 µM,[1]; [4],1.63 h
same,half-life at 1000 nM,[2],0.261 h
